Biological target: T1, HA-DOPr (HA-tagged δ opioid receptor) (Homo sapiens, UniProt P41143)
T1 construct: gene OPRD1; full-length wild type, HA-tagged
Assay: [3H]-diprenorphine competition, HEK293 membranes
Assay type: binding
Conditions: read-out: [^3H]-Diprenorphine / pKi (converted)
Description: [3H]-diprenorphine competition, HEK293 membranes on HA-DOPr (HA-tagged δ opioid receptor)

T1 sequence (P41143 whole entry, looked up): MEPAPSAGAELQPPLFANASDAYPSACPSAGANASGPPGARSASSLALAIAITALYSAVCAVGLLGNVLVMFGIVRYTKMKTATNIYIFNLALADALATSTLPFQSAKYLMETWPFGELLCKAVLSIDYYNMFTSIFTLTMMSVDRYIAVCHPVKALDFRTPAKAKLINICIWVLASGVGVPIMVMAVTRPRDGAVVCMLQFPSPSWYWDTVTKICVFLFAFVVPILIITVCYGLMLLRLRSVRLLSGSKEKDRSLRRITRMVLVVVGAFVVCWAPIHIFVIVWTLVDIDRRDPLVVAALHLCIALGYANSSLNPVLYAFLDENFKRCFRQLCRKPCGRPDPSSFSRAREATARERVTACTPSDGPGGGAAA

CN(C)C(=O)c1ccc(C(=C2CCN(Cc3cncs3)CC2)c2cccc(C(N)=O)c2)cc1 [PN6047, 3-[[4-(dimethylcarbamoyl)phenyl]-[1-(thiazol-5-ylmethyl)-4-piperidylidene]methyl]benzamide]
Ki: 56.2 nM
